# Measurements: patent publication US20120178738A1, “DIBENZO [B,F] [1,4]OXAZAPINE COMPOUNDS” (ARYX THERAPEUTICS, INC., priority 2007, published 2012)
# Key:
# [1] = molecular target: T1, human D2S receptor (Homo sapiens, UniProt P14416); assay: Adenylyl cyclase (HitHunter cAMP XS) assay in HEK 293 cells expressing human D2S; format: cell-based
# T1 construct: host or cells: HEK 293 cells
# [2] = test system: catalepsy in mice; assay: Catalepsy mouse model; format: in vivo; conditions: up to 30 mg/kg, IP
# Experimental: A catalepsy mouse model was used to investigate a potential side effect of antipsychotic agents.
# The catalepsy methodology used herein has been adapted from Tada, M. et al. ((2004). Psychopharmacol., 176, 94-100) as well as Wang et al. ((2000). J. Neurosci., 20, 8305-8314).
# The animals (Swiss Webster, female, about 20 g; Charles River) were administered compounds of the invention (1 μg/kg-30 mg/kg ip). Twenty seven minutes after test compound injection, the mice's forepaws were placed on a horizontal steel bar (diameter 0.2 cm), elevated 3-5 cm above the tabletop and the time taken for the animals to remove both paws was recorded for up to 2 min.
# [3] = test system: apomorphine-induced disruption of swimming in mice; assay: Antagonism of apomorphine-induced disruption of swimming in mice; format: in vivo
# Description: The antagonism of apomorphine-induced disruption of swimming in mice (Warawa, E. J. et al. (2001). Behavioral approach to nondyskinetic dopamine antagonists: identification of seroquel. J. Med. Chem., 44, 372-389) was used to assess test compounds. Apomorphine-treated mice fail to swim and remain in place, pawing the walls of the swimming chamber, or making abortive swims. Certain atypical antipsychotic compounds “normalize” the swimming behavior of such mice.
# The animals (Swiss Webster, female, about 20 g; Charles River) were administered compounds of the invention (0.1 μg/kg-30 mg/kg ip) […] before they were dosed with apomorphine HCl at 1.25 mg/kg sc. Twenty seven minutes after test compound injection, and fifteen minutes after apomorphine injection, each mouse was placed into a circular swimming tank for 2 minutes and the number of “swims” were counted. The height of the tank is 15 cm and the diameter is 28 cm. A circular obstacle, 10.5 cm in diameter and 17 cm high was placed in the center of the tank creating a circular swimming channel 8.75 cm wide. The water level is 5.5 cm and the water was kept at room temperature (about 20° C.). Marks are placed on the floor and side of the tank 180 degrees apart. A “swim” was scored each time a mouse swims from one mark to the other and the median number of swims for all the mice was used as the score for that treatment.
# [4] = test system: NMDA antagonist-induced deficits in prepulse inhibition in rats; assay: Prepulse inhibition (PPI), NMDA antagonist (PCP)-induced deficit; conditions: ip 45 min before, PCP 1.5 mg/kg s.c.
# [5] = test system: locomotor activity in rats; assay: Spontaneous locomotor activity (open field); format: in vivo
# Experimental: One of the common side effects of many antipsychotic drugs is sedation. It has been shown that agents that have sedative actions in man have the same effect in animals. The purpose of these studies was to evaluate the effect of test compounds on the locomotor activity in rats, which is used to assess the sedative properties of antipsychotic compounds.
# The animals (male Sprague Dawley rats, about 300-450 g; Charles River) were assessed for ambulation for 30 minutes before and for 30 min after vehicle or test compounds. […] Locomotor activity is quantified by the number of photobeams crossed by the animal over several 3×10 min intervals.
# T1 sequence (P14416 1-414 isoform P14416-2): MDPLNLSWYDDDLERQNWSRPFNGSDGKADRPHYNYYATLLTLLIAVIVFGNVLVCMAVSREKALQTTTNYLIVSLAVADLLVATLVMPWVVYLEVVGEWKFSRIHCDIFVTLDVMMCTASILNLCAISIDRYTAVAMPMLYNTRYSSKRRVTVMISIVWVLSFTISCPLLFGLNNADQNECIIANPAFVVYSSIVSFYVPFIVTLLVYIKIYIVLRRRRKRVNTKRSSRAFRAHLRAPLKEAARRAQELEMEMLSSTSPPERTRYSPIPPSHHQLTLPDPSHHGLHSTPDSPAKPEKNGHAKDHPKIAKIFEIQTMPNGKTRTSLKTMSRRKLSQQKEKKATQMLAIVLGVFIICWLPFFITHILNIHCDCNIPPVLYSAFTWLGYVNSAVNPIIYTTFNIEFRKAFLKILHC
smiles,measurement,setting,value
"CCOC(=O)C[C@H]1CN(C2=Nc3cc(Cl)ccc3Oc3ccccc32)CCN1 [Compound K, (S,E)-ethyl 2-(4-(8-chlorodibenzo[b,f][1,4]oxazepin-11-yl)piperazin-2-yl)acetate]",functional activity at human D2S receptor,"[1]; HEK 293 cells, 27 μM forskolin (agonist) or plus 30 nM dopamine (antagonist)",partial D2 receptor agonist and a D2 receptor antagonist
same,IC50,"[1]; adenylyl cyclase assay, human D2S receptor, read-out: estimated IC50",13 µM
same,catalepsy,[2],did not cause catalepsy
same,"antagonizing the apomorphine-induced disruption of swimming, potency vs clozapine","[3]; ip, apomorphine HCl 1.25 mg/kg sc",more potent than clozapine
same,NMDA antagonist-induced deficits in prepulse inhibition,[4],Restore
same,locomotor activity in rat (open field),[5]; 0.03-10 mg/kg,did not reduce
"O=C(O)C[C@H]1CN(C2=Nc3cc(Cl)ccc3Oc3ccccc32)CCN1 [Compound Q, (S,E)-2-(4-(8-chlorodibenzo[b,f][1,4]oxazepin-11-yl)piperazin-2-yl)acetic acid]",reversal of apomorphine-induced disruption of swimming,[3]; 3 and 10 mg/kg,reversed
same,NMDA antagonist-induced deficits in prepulse inhibition,[4],Restore
same,locomotor activity in rat (open field),[5]; 10 mg/kg,did not reduce
